One series can be described thus: Water solubility. In kind it is physicochemical. As for the experimental part:
The tablet shapes and total tablet weights were kept same for all four different strengths and for the two different release rate tablets. […] In the formulations of aplindore fumarate 5.0 mg, 2.0 mg, 0.5 mg and 0.05 mg medium and slow release formulations, Lactose Fast Flo has been chosen as the water-soluble compensating excipient. […] It has been used in the 10.0 mg medium release formulation.

Series [1] in a line: Side effects on dosing subject patients with aplindore. In kind it is in vivo, human. The conditions noted are these: correlated with time period of maximal plasma levels. The source says: In especially preferred embodiments of each of the formulations of the invention, the active compound is aplindore. Aplindore and pharmaceutically acceptable salts thereof are particularly well-suited to treating various disorders of the central nervous system and more particularly to those central nervous disorders relating to the dopaminergic system. Because aplindore (or any drug) requires a sufficient exposure level to achieve its desired effects, the drug must be dosed in a manner sufficient to achieve the particular blood plasma level over a period of time deemed sufficient to meet the clinical objective sought. […] Simply reducing the dose would not always be satisfactory since, while the side effects might lessen or disappear, the overall drug exposure levels might not be satisfactory to treat the particular condition.

With `O=C(O)/C=C/C(=O)O.O=C1Cc2c(ccc3c2O[C@@H](CNCc2ccccc2)CO3)N1` [aplindore fumarate], the water solubility entry in the series “Water solubility” was “highly water-soluble”. As for `O=C1Cc2c(ccc3c2O[C@@H](CNCc2ccccc2)CO3)N1` [aplindore, S-2-[(Benzylamino)-methyl]-2,3,8,9-tetrahydro-7H-1,4-dioxino[2,3-e]indol-8-one], the side effects result in series [1] is “side effects including nausea and vomiting”.

The values are drawn from patent US11179369B2, “Sustained release pharmaceutical compositions” (Wyeth, LLC, priority 2003, dated 2021).
